Reference: ChEMBL document CHEMBL4390708, “Design, synthesis, in-silico studies and biological screening of quinazolinone analogues as potential antibacterial agents against MRSA” (2019)
≈ marks a conversion by molar mass, not a printed value.

Key:
Format in all cases: functional
Staphylococcus aureus [1] = experiment: Antibacterial activity against Staphylococcus aureus assessed as reduction in bacterial cell viability incubated for 20 to 24 hrs by REMA method
Escherichia coli = experiment: Antibacterial activity against Escherichia coli assessed as reduction in bacterial cell viability incubated for 20 to 24 hrs by REMA method
Staphylococcus aureus [2] = experiment: Antibacterial activity against methicillin-resistant Staphylococcus aureus assessed as reduction in bacterial cell viability incubated for 20 to 24 hrs by REMA method

Compound	MIC (Staphylococcus aureus [1]) [µg/mL]	MIC (Escherichia coli) [µg/mL]	MIC (Staphylococcus aureus [2]) [µg/mL]
Cc1ccccc1C(=O)Nc1cccc(-n2c(/C=C/c3ccc(F)cc3)nc3ccccc3c2=O)c1	125 (≈ 263 µM)	62.5 (≈ 131 µM)	62.5 (≈ 131 µM)
COc1ccc(C(=O)Nc2cccc(-n3c(/C=C/c4ccc(Cl)cc4)nc4ccccc4c3=O)c2)cc1OC	62.5 (≈ 116 µM)	62.5 (≈ 116 µM)	62.5 (≈ 116 µM)
O=C(Nc1cccc(-n2c(/C=C/c3ccc(F)cc3)nc3ccccc3c2=O)c1)c1cccs1	31.2 (≈ 66.8 µM)	62.5 (≈ 134 µM)	31.2 (≈ 66.8 µM)
COc1ccc(C(=O)Nc2cccc(-n3c(/C=C/c4ccc(F)cc4)nc4ccccc4c3=O)c2)cc1OC	62.5 (≈ 120 µM)	62.5 (≈ 120 µM)	62.5 (≈ 120 µM)
N#Cc1ccc(/C=C/c2nc3ccccc3c(=O)n2-c2cccc(NC(=O)c3ccccc3)c2)cc1	62.5 (≈ 133 µM)	62.5 (≈ 133 µM)	62.5 (≈ 133 µM)
CC(=O)NC[C@H]1CN(c2ccc(N3CCOCC3)c(F)c2)C(=O)O1 [LINEZOLID]			7.8 (≈ 23.1 µM)
NC[C@H]1O[C@H](O[C@H]2[C@H](O)[C@@H](O[C@H]3O[C@H](CO)[C@@H](O)[C@H](N)[C@H]3O)[C@H](N)C[C@@H]2N)[C@H](O)[C@@H](O)[C@@H]1O [KANAMYCIN]	7.8 (≈ 16.1 µM)	7.8 (≈ 16.1 µM)	
O=C(Nc1cccc(-n2c(/C=C/c3ccc(F)cc3)nc3ccccc3c2=O)c1)c1ccccc1	125 (≈ 271 µM)	62.5 (≈ 135 µM)	62.5 (≈ 135 µM)
COc1ccc(CC(=O)Nc2cccc(-n3c(/C=C/c4ccc(F)cc4)nc4ccccc4c3=O)c2)cc1	62.5 (≈ 124 µM)	62.5 (≈ 124 µM)	62.5 (≈ 124 µM)
COc1ccc(CC(=O)Nc2cccc(-n3c(/C=C/c4ccc(Cl)cc4)nc4ccccc4c3=O)c2)cc1	15.6 (≈ 29.9 µM)	62.5 (≈ 120 µM)	31.2 (≈ 59.9 µM)
Cc1ccccc1C(=O)Nc1cccc(-n2c(/C=C/c3ccc(C#N)cc3)nc3ccccc3c2=O)c1	62.5 (≈ 130 µM)	62.5 (≈ 130 µM)	62.5 (≈ 130 µM)
CN[C@@H]1[C@H](O[C@H]2[C@H](O[C@H]3[C@H](O)[C@@H](O)[C@H](N=C(N)N)[C@@H](O)[C@@H]3N=C(N)N)O[C@@H](C)[C@]2(O)C=O)O[C@@H](CO)[C@H](O)[C@H]1O [STREPTOMYCIN]	7.8 (≈ 13.4 µM)	7.8 (≈ 13.4 µM)	
N#Cc1ccc(/C=C/c2nc3ccccc3c(=O)n2-c2cccc(NC(=O)c3cccs3)c2)cc1	62.5 (≈ 132 µM)	62.5 (≈ 132 µM)	62.5 (≈ 132 µM)
